Assay results as given in PubChem BioAssay (NCI).
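Exposure lasted 48 hours, with cells grown in 96-well plates and compounds tested at five concentrations. TGI marks complete inhibition of growth.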

Experiments:
Assay in all cases: NCI-60 cell line screen, 48 h
[1] = system: SK-OV-3 ovarian
[2] = system: EKVX NSCLC
[3] = system: NCI-H226 lung
[4] = system: MDA-MB-435
[5] = system: MCF7 breast
[6] = system: UACC-62 melanoma
[7] = system: OVCAR-5 ovarian
[8] = system: SN12C renal
[9] = system: SNB-19 CNS
[10] = system: K-562 leukemia
[11] = system: SF-268 CNS
[12] = system: LOX IMVI melanoma
[13] = system: ACHN renal
[14] = system: SF-295 CNS
[15] = system: U251 CNS
[16] = system: HS 578T breast
[17] = system: NCI/ADR-RES ovarian
[18] = system: 786-0 renal
[19] = system: DU-145 prostate
[20] = system: A549 NSCLC
[21] = system: BT-549 breast
[22] = system: SNB-75 CNS
[23] = system: OVCAR-3 ovarian
[24] = system: UO-31 renal
[25] = system: SW-620 colon
[26] = system: HOP-92 NSCLC
[27] = system: PC-3 prostate
[28] = system: UACC-257 melanoma
[29] = system: HCT-15 colon
[30] = system: HT29 colon
[31] = system: NCI-H23 lung
[32] = system: MDA-N
[33] = system: NCI-H522 lung
[34] = system: MALME-3M melanoma
[35] = system: M14 melanoma
[36] = system: HCC-2998 colon
[37] = system: MOLT-4 leukemia
[38] = system: KM12 colon
[39] = system: TK-10 renal
[40] = system: OVCAR-8 ovarian
[41] = system: CCRF-CEM leukemia
[42] = system: SK-MEL-2 melanoma
[43] = system: SF-539 CNS
[44] = system: NCI-H460 lung
[45] = system: IGROV1 ovarian
[46] = system: OVCAR-4 ovarian
[47] = system: HL-60(TB) leukemia
[48] = system: T-47D breast
[49] = system: A498 renal
[50] = system: HCT-116 colon
[51] = system: SR leukemia
[52] = system: SK-MEL-28 melanoma
[53] = system: RXF 393 renal
[54] = system: MDA-MB-231 breast
[55] = system: COLO 205 colon
[56] = system: CAKI-1 renal
[57] = system: SK-MEL-5 melanoma
[58] = system: RPMI-8226 leukemia
[59] = system: HOP-62 NSCLC

SMILES: O=C1CCC2(c3ccc(Cl)cc3)Nc3ncncc3N12 (stereo not drawn)
- TGI [1]: > 10 µM
- TGI [2]: > 10 µM
- TGI [3]: > 10 µM
- TGI [4]: > 10 µM
- TGI [5]: > 10 µM
- TGI [6]: > 10 µM
- TGI [7]: > 10 µM
- TGI [8]: > 10 µM
- TGI [9]: > 10 µM
- TGI [10]: > 10 µM
- TGI [11]: > 10 µM
- TGI [12]: > 10 µM
- TGI [13]: > 10 µM
- TGI [14]: > 10 µM
- TGI [15]: > 10 µM
- TGI [16]: > 10 µM
- TGI [17]: > 10 µM
- TGI [18]: > 10 µM
- TGI [19]: > 10 µM
- TGI [20]: > 10 µM
- TGI [21]: > 10 µM
- TGI [22]: > 10 µM
- TGI [23]: > 10 µM
- TGI [24]: > 10 µM
- TGI [25]: > 10 µM
- TGI [26]: > 10 µM
- TGI [27]: > 10 µM
- TGI [28]: > 10 µM
- TGI [29]: > 10 µM
- TGI [30]: > 10 µM
- TGI [31]: > 10 µM
- TGI [32]: > 10 µM
- TGI [33]: > 10 µM
- TGI [34]: > 10 µM
- TGI [35]: > 10 µM
- TGI [36]: > 10 µM
- TGI [37]: > 10 µM
- TGI [38]: > 10 µM
- TGI [39]: > 10 µM
- TGI [40]: > 10 µM
- TGI [41]: > 10 µM
- TGI [42]: > 10 µM
- TGI [43]: > 10 µM
- TGI [44]: > 10 µM
- TGI [45]: > 10 µM
- TGI [46]: > 10 µM

SMILES: CN1C=COC1N=C1CCCCC1 (stereo not drawn)
- TGI [1]: > 100 µM
- TGI [47]: > 100 µM
- TGI [48]: > 100 µM
- TGI [2]: > 100 µM
- TGI [3]: > 100 µM
- TGI [4]: > 100 µM
- TGI [5]: > 100 µM
- TGI [6]: > 100 µM
- TGI [7]: > 100 µM
- TGI [8]: > 100 µM
- TGI [9]: 12 µM
- TGI [10]: > 100 µM
- TGI [11]: > 100 µM
- TGI [12]: > 100 µM
- TGI [13]: > 100 µM
- TGI [49]: > 100 µM
- TGI [14]: > 100 µM
- TGI [50]: > 100 µM
- TGI [15]: > 100 µM
- TGI [16]: > 100 µM
- TGI [17]: > 100 µM
- TGI [18]: > 100 µM
- TGI [19]: > 100 µM
- TGI [20]: > 100 µM
- TGI [22]: > 100 µM
- TGI [23]: > 100 µM
- TGI [24]: > 100 µM
- TGI [51]: > 100 µM
- TGI [52]: > 100 µM
- TGI [25]: 12.1 µM
- TGI [26]: > 100 µM
- TGI [27]: > 100 µM
- TGI [29]: > 100 µM
- TGI [30]: > 100 µM
- TGI [53]: > 100 µM
- TGI [31]: > 100 µM
- TGI [54]: > 100 µM
- TGI [32]: > 100 µM
- TGI [33]: > 100 µM
- TGI [34]: > 100 µM
- TGI [35]: > 100 µM
- TGI [55]: > 100 µM
- TGI [36]: > 100 µM
- TGI [56]: 9.16 µM
- TGI [37]: > 100 µM
- TGI [38]: > 100 µM
- TGI [57]: > 100 µM
- TGI [39]: > 100 µM
- TGI [40]: > 100 µM
- TGI [41]: > 100 µM
- TGI [42]: > 100 µM
- TGI [58]: > 100 µM
- TGI [43]: > 100 µM
- TGI [44]: > 100 µM
- TGI [59]: > 100 µM
- TGI [45]: > 100 µM
- TGI [46]: > 100 µM
